From patent US7345088B2, “Pharmaceutical composition for use for the treatment of malignancies comprising in combination a bisphosphonates, a cox-2 inhibitor and a taxol” (Penn State Research Foundation, priority 2001, dated 2008)

Columns and labels:
Assay type in all cases: cell-based
[1] = system: HER-2/neu transfected human breast cancer cell line (MCF/18); experiment: MTT tetrazolium dye assay, cell number after 3-day incubation, MCF/18; conditions: MCF/18 cells
Method: (§1) Methods: The effect of combining the COX-2 inhibitor (SC 236) and zoledronic acid compared to either agent alone was tested in a HER-2/neu transfected human breast cancer cell line (MCF/18) and the control vector transfected line (MCF/neo). Cell number was determined after a 3-day incubation using the MTT tetrazolium dye assay.
as §1, with “(SC236) with” for “(SC 236) and”, “and/or taxotere” for “compared to either agent alone”

[2] = system: control vector transfected human breast cancer cell line (MCF/neo); experiment: MTT tetrazolium dye assay, cell number after 3-day incubation, MCF/neo; conditions: MCF/neo cells
Method: as §1
as §1, with “(SC236) with” for “(SC 236) and”, “and/or taxotere” for “compared to either agent alone”

[3] = system: DU-145 human prostate carcinoma cell line; experiment: MTT tetrazolium dye assay, cell number after 3 day treatment, DU-145; conditions: DU-145 cells
Method: Methods: The effect of combining the COX-2 inhibitor (SC236) and zoledronic acid compared to either agent alone was tested in the DU-145 human prostate carcinoma cell line. Cell number was determined after a 3 day treatment using the MTT tetrazolium dye assay.

[4] = single agent 1-10 μM, 3-day incubation (Example 19)
[5] = single agent, concentration not given, 3-day incubation (Example 20)

Compound	growth inhibition [1, 4]	growth inhibition [2, 4]	growth inhibition ([3]; 5 μM) [%]	growth inhibition ([3]; 1-25 μM)	growth inhibition [1, 5]	growth inhibition [2, 5]	growth inhibition ([3]; 1-10 μM)	inhibition at 3 µM ([3]; Homo sapiens, 72 h, 3 μM, read-out: growth inhibition) [%]
NS(=O)(=O)c1ccc(-n2nc(C(F)(F)F)cc2-c2ccc(Cl)cc2)cc1 [SC236]	15-41%	18-53%	40	0-77%				
O=P(O)(O)C(O)(Cn1ccnc1)P(=O)(O)O [zoledronic acid, 2-(imidazol-1yl)-1-hydroxyethane-1,1-diphosphonic acid]	9-53%	8-67%			9%-53%	18%-67%	8-70%	23
